Measured values: US20240287044A1, “SALT OF SELECTIVE FGFR4 INHIBITOR, AND PREPARATION METHOD THEREFOR AND APPLICATION THEREOF” (ZHEJIANG HISUN PHARMACEUTICAL CO., LTD., priority 2021, published 2024)
pIC50: −log10 of the molar value. “And” between values parts separate entries of the source, which are not always exact repeats. Equal entries are not always repeated. Structures can show the parent of a compound that is named as a salt.

Tests used:
[1] = system: hepatocellular carcinoma cells Hep3B; conditions: in vitro, read-out: IC50 value, inhibitory activity against Hep3B; cited from earlier work
[2] = Pharmacokinetic study on different salt forms (SD rats); type: in vivo; conditions: 20 mg·kg^−1 single gavage, fasted, 0.5% CMC-Na, plasma
Procedure: After vortex oscillation, ultrasonication was carried out. If necessary, shearing and emulsification or grinding could be carried out until well mixed, to obtain an administration formulation with a concentration of 2 mg· mL^−1.
(§1) Experimental animals were kept in animal rooms, which were well ventilated and equipped with air conditioning, and the temperature was maintained at 20-25° C., humidity at 40%-70%, and light and dark lighting for 12 hours each, and the experimental animals were allowed to eat and drink freely. After normal feeding for about 5 days, rats with good physical condition could be selected for this experiment after examination by a veterinary. Each rat was marked with a tail number.
(§2) The detailed administration regimen of the animal experiment is seen in Table 2. On the day before the experiment, all SD rats were fasted overnight (equal to or more than 12 hours). On the day of the experiment, after weighing, the theoretical administration volume for each rat was calculated according to the following formula. The administration formulation should be prepared on the day of the experiment, and the interval between preparation and administration should not exceed 2 hours. The actual administration amount of each rat and the collection time of the plasma sample should be recorded in detail in the corresponding table. SD rats were allowed to restore eating 4 hours after administration, and were allowed to drink water freely during the experiment.
Before and 0.25, 0.5, 1, 2, 4, 8, 12 and 24 hours after administration, 0.15 mL blood was collected from jugular vein and placed into anticoagulant tubes containing EDTA-K2.
All whole blood samples were subjected to centrifugation for 10 minutes (5500 rpm), and then the plasma was separated and stored in a refrigerator at −30° C. to −10° C.
The corresponding pharmacokinetic parameters were calculated using the […] of Pharsight Phoenix 7.0, and the results are shown in Table 3 below.

[3] = system: Hep3B human liver carcinoma subcutaneous transplanted tumor; test: Subcutaneous transplantation model of Hep3B human liver carcinoma; type: in vivo, BALB/c nude mice; conditions: for anti-tumor activity (in words): Hep3B model, 50 mg/kg twice a day gavage 10 days
Procedure: Preparation of administration formulation for gavage administration: sorafenib, free-base compounds as represented by formula (I) and its maleate salts, phosphate salts, hydrochloride salts, mesylate salts, and ethanesulfonate salts were accurately weighed respectively, and an appropriate volume of normal saline was added, and then vortex oscillation was performed until mixed well, and the administration formulation was prepared just before use.
BALB/c nude mice, female, purchased from Jiangsu Jicui Pharmacom Biotechnology Co. Licence No.: SCXK (Su) 2019-0009, Animal Qualification Certificate No.: 202102418.
After arrival, animals were required to be kept in the experimental environment for 7 days before starting the experiment. The experimental animals were kept in intelligent independent ventilation cages (IVC) with constant temperature and humidity. The temperature was maintained at 20-26° C. and the humidity was maintained at 40-70%. Under a light-dark cycle of 10 hours light/14 hours dark, the experimental animals were allowed to free access to food and water. The animals were labeled using ear tag.
Establishment of subcutaneous tumor model of Hep3B cell: 0.2 mL of a cell suspension containing 3.5×10^6 Hep3B cells was inoculated subcutaneously on the right side of the back of female BALB/c nude mice aged over 6 weeks to establish a transplant tumor. The diameter of tumor was measured with a vernier caliper, and tumor volume was calculated using the following formula: tumor volume=0.5×a×b^2, where a and b represented the long and short diameter of the tumor, respectively. The tumor-bearing mice were randomly divided into 9 groups and administered according to the experimental design when the average tumor volume was at a range of 200-250 mm^3. Mice in each treatment group and solvent control group were subjected to orally intragastric administration for 10 days. The tumor volume of mice was measured twice weekly, and the body weight was weighed daily. The curative effect was assessed based on the relative tumor growth inhibition (TGI) rate (%), and safety was evaluated according to the change of body weight and mortality of animals.

[4] = Pharmacokinetics of different salt forms (ICR mice); type: in vivo; conditions: plasma, 75 mg·kg^−1 single gavage, fasted, normal saline
Procedure: After vortex oscillation, ultrasonication was carried out. If necessary, shearing and emulsification or grinding could be carried out until well mixed, to obtain an administration formulation with a concentration of 7.5 mg· mL^−1.
as §1
as §2, with “of the ICR mice experiment is” for “of the animal experiment is”, “in Table 5. On the” for “in Table 2. On the”, “experiment, all ICR mice were fasted” for “experiment, all SD rats were fasted”, “for each mouse was calculated” for “for each rat was calculated”, “corresponding table. ICR mice were allowed” for “corresponding table. SD rats were allowed”
Before and 0.25, 0.5, 1, 2, 4, 8, 10, 12 and 24 hours after administration, 0.15 mL blood was collected from fundus venous plexus and placed into anticoagulant tubes containing EDTA-K2.
All whole blood samples were subjected to centrifugation for 10 minutes (5500 rpm), and then the plasma was separated and stored in a refrigerator at −30 to −10° C.

[5] = day 11 after administration, gavage 10 days, 50 mg/kg twice a day (based on formula (I)), sorafenib 30 mg/kg once a day
[6] = day 11 after administration, gavage 10 days, 50 mg/kg twice a day (based on formula (I)), sorafenib 30 mg/kg once a day, listed as sorafenib

| AUC0-t [2] [ng·h/mL] | Cmax [2] [ng/mL] | Tmax [2] [h] | T1/2 [2] [h] | Structure (SMILES) | anti-tumor activity (in words) [3] | tumor volume (x ± S) [3, 5] | further results |
| --- | --- | --- | --- | --- | --- | --- | --- |
| 194.55 | 52.74 | 4.00 |  | C=CC(=O)Nc1cc(N2CCN(CC)C3(CC3)C2)ccc1Nc1cc(N(C)C(=O)Nc2c(Cl)c(OC)cc(OC)c2Cl)ncn1 [Free base, N-(2-((6-(3-(2,6-dichloro-3,5-dimethoxyphenyl)-1-methylureido)pyrimidin-4-yl)amino)-5-(4-ethyl-4,7-diazaspiro[2.5]octane-7-yl)phenyl) acrylamide] | significant anti-tumor activity |  | pIC50 [1]: 7.72; half-life ([2]; SD, rat, po, 20 mg/kg): 2.15 h; tumor volume (x ± S) ([3]; day 11 after administration, gavage 10 days, 50 mg/kg twice a day (based on formula (I)), sorafenib 30 mg/kg once a day, listed as compound as represented by formula): 314 ± 72 mm^3; tumor volume (x ± S) ([3]; day 11 after administration, gavage 10 days, 50 mg/kg twice a day (based on formula (I)), sorafenib 30 mg/kg once a day, listed as compound as represented by formula (I)): 314 mm^3 |
|  |  |  |  | CNC(=O)c1cc(Oc2ccc(NC(=O)Nc3ccc(Cl)c(C(F)(F)F)c3)cc2)ccn1 [Sorafenib, reference compound] |  | 1238 ± 199 mm^3 | T/C (%) relative tumor proliferation rate [3, 5]: 57.10%; TGI (%) relative tumor growth inhibition [3, 5]: 42.90%; relative tumor volume (x ± S) [3, 5]: 5.50 ± 0.22; TGI (%) relative tumor growth inhibition [3, 6]: 42.9%; tumor volume (x ± S) [3, 6]: 1238 mm^3 |
| 410.81 | 141.81 | 1.50 | 2.37 | C=CC(=O)Nc1cc(N2CCN(CC)C3(CC3)C2)ccc1Nc1cc(N(C)C(=O)Nc2c(Cl)c(OC)cc(OC)c2Cl)ncn1 [ethanesulfonate salt] | significant anti-tumor activity | 121 mm^3 and 121 ± 17 mm^3 | AUC0-t ([4]; ICR, mouse, po, 75 mg/kg, read-out: AUC0-t): 9660 ng·h/mL; Cmax ([4]; ICR, mouse, po, 75 mg/kg, read-out: Cmax): 4110 ng/mL; Tmax ([4]; ICR, mouse, po, 75 mg/kg, read-out: Tmax): 0.5 h |
| 357.27 | 99.39 | 0.42 | 3.01 | C=CC(=O)Nc1cc(N2CCN(CC)C3(CC3)C2)ccc1Nc1cc(N(C)C(=O)Nc2c(Cl)c(OC)cc(OC)c2Cl)ncn1 [mesylate salt] | significant anti-tumor activity | 93 mm^3 and 93 ± 32 mm^3 | AUC0-t [4]: 8660 ng·h/mL; Cmax [4]: 3740 ng/mL; T1/2 [4]: 1.78 h; Tmax [4]: 0.250 h |
